“Also recorded” adds a separate entry of the source.
What was measured:
human islets = test: Human islets under cytokine stress, transmission electron microscopy; format: cell-based; conditions: 24 hours
Description: (§1) Mouse pancreatic islets were isolated as previously described (Yoshihara et al., 2010, Nat. Commun 1:127) with slight modification. Briefly, 0.5 mg/ml collagenase P (Roche REF 1213873001, diluted in HBSS buffer, GIBCO, 14170-112) was injected through the common bile duct, and the perfused pancreas dissected and incubated at 37° C. for 21 min. Digested exocrine cells and intact islets were separated via centrifugation (900×g for 15 min) over Histopaque-1077 (Sigma, H8889), and intact islets were manually selected. Human islets were provided by the Integrated Islets Distribution Program (see details below).
Islets in suspension were pelleted in 2% low melting point agarose and subsequently fixed in 2.5% glutaraldehyde with 2% paraformaldehyde in 0.15M cacodylate buffer containing 2 mM calcium chloride, pH 7.4, for one hour at 4° C. The pellet was trimmed down to contain the minimal amount of agarose possible, washed in buffer, and secondarily fixed in 1% osmium tetroxide/0.3% potassium ferrocyanide in buffer. Subsequently, the pellet was washed in water and en bloc stained with 2% uranyl acetate followed by a graded dehydration in ethanol (35%, 50%, 70%, 90%, 100%, 100%). […]

INS1 cells = test: Thapsigargin or tunicamycin-induced ER stress in INS1 cells (p-PERK Western); format: cell-based, rat; conditions: Cal pre-treated 1 hour, stressor overnight
Nfkbia (IκBα) = test: Nfkbia expression in IL1β-stressed INS1 cells (qPCR); format: cell-based, rat
Description: Samples were run in triplicate and expression was normalized to the levels of the housekeeping controls Rplp0 (36b4) for human and mouse. Samples were analyzed by qPCR, using SYBR Green dye (Bio-rad). Statistical comparisons were made using Student's t test. Error bars are mean±SEM. Primers used are shown below: INS1 cells were cultured at 37° C. in 5% C02 in air in RPMI-1640 (Sigma Aldrich) supplemented with 10% (v/v) fetal bovine serum, 1% (v/v) Antibiotic-Antimycotic (Gibco) 10 mM HEPES, 2 mM glutamax, 1 mM sodium pyruvate, and 50 μM β-mercaptoethanol (RPMI for INS1 medium). INS1 cells were transfected with Lipofectamine RNAiMAX (Invitrogen) for 24 hr, […] (VDR: L-097753-02-0005, PCAF: L-085879-02-0005, BAF180: L-088113-02-0005, non-targeting pool: D-001810-10-05).

mouse islets = test: Isolated mouse islets cultured with IL1β ± Cal (RNA-Seq); format: cell-based
Description: Total RNA was isolated from tissue or cell pellets using the RNA mini kit (Qiagen). Sequencing libraries were prepared from 100-500 ng total RNA using the TruSeq RNA Sample Preparation Kit v2 (Illumina) according to the manufacturer's protocol. Briefly, mRNA was purified, fragmented, and used for first-, then second-strand cDNA synthesis followed by adenylation of 3′ ends. Samples were ligated to unique adapters and subjected to PCR amplification. Libraries were then validated using the 2100 BioAnalyzer (Agilent), normalized, and pooled for sequencing. RNA-Seq libraries prepared from two biological replicates for each experimental condition were sequenced on the Illumina HiSeq 2000 using bar-coded multiplexing and a 100 bp read length.
Image analysis and base calling were performed with Illumina CASAVA-1.8.2. This yielded a median of 29.9M usable reads per sample. Short read sequences were mapped to a UCSC mm9 reference sequence using the RNA-seq aligner STAR (Dobin et al., 2013). Known splice junctions from mm9 were supplied to the aligner and de novo junction discovery was also permitted. Differential gene expression analysis, statistical testing and annotation were performed using Cuffdiff 2 (Trapnell et al., 2013). Transcript expression was calculated as gene-level relative abundance in fragments per kilobase of exon model per million mapped fragments and employed correction for transcript abundance bias (Roberts et al., 2011). RNA-Seq results for genes of interest were also explored visually using the UCSC Genome Browser.
as §1, with “Human islets were provided by the Integrated Islets Distribution Program (see details below).” left out

[1] = tested on: BAF/PBAF complex binding at Nfkbia, Nfkbiz, Camk4; test: ChIP-qPCR of ARID1B and BAF180 at VDR target loci; format: cell-based, rat
Excerpt: The experimental procedure for ChIP was as previously described (Barish et al., 2010, Genes Dev 24:2760-5). Briefly, after fixation, nuclei from were isolated, lysed, and sheared with a Diagenode Bioruptor to yield DNA fragment sizes of 200-1,000 bp followed by immunoprecipitation.

[2] = In vivo pharmacokinetic study of iBRD9 (plasma, LC-MS); conditions: FIG. 12J, n=3
Description: An internal standard of d4-succinate was added to all samples prior to analysis. […] of methanol containing 100 pmol of d4-succinate was added to 50 uL plasma samples and vortexed for 1 min. The samples were then centrifuged at 17.000× g for 10 min at 4° C. After drying the supernatant via SpeedVac, the extract was dissolved in H2O ([…]) and […] was subjected to liquid chromatography mass spectrometry (LC-MS). Compound i-BRD9 was measured using a TSQ Quantiva mass spectrometer (Thermo) and Dionex Ultimate 3000 (Thermo) fitted with a Gemini C18 HPLC column ([…]; 4.6 mm×50 mm, Phenomenex). LC solvents used were: solvent A, 0.1% formic acid in water; solvent B, 0.1% formic acid in acetonitrile. Separations took place over 16 min with a flow rate of 0.4 mL/min and consisted of the following steps: 5 to 50% solvent B over 9 min, 50 to 80% B over 1 min, 80% B for 1 min, 80 to 5% B over 0.1 min, and 5% B for 5 min. MS analyses were performed using electrospray ionization (ESI) in positive ion mode for i-BRD9 and negative ion mode for d4-succinate. Positive and negative mode source parameters were as follows: spray voltage 3.5 kV, ion transfer tube temperature of 325° C., and a vaporizer temperature of 275° C. Multiple reaction monitoring transitions for target compound and internal standard are shown in (Table 2).

SMILES | cytokine-induced morphological degeneration (insulin granules, ER) (human islets) | ER stress (p-PERK) (INS1 cells) | Nfkbia expression (Nfkbia (IκBα); 30 minutes IL1β exposure) | Nfkbia expression (Nfkbia (IκBα); IL1β stress, after 24 hrs) | IL1β-induced damage / gene expression changes in islets (mouse islets; 48 or 96 hours) | number of genes induced by IL1β and rescued (mouse islets; 96 hours) [genes] | number of genes suppressed by IL1β and rescued (mouse islets; 96 hours) [genes] | ARID1B (BAF complex) binding at target gene loci [1] | BAF180 (PBAF complex) binding at target gene loci [1] | maximum plasma iBRD9 concentration [2] [nM]
C=C1/C(=C\C=C2/CCC[C@]3(C)[C@@H]([C@H](C)/C=C/[C@@H](O)C4CC4)CC[C@@H]23)C[C@@H](O)C[C@@H]1O [Cal, calcipotriol] | partially rescues the morphological degeneration | attenuated | increased | not sufficient to induce a significant increase | protected islets from IL1β-induced damage; also recorded: partially rescued | 332 | 169 | – | – | –
CCn1cc(-c2cccc(C(F)(F)F)c2)c2sc(C(=N)NC3CCS(=O)(=O)CC3)cc2c1=O [iBRD9] | – | – | – | – | – | – | – | reduces BAF complex binding | increases PBAF complex binding | ~750
